Results as given in publication PMC9917264, “Ca^2+-Triggered Coelenterazine-Binding Protein Renilla: Expected and Unexpected Features” (International Journal of Molecular Sciences, 2023).

Target: T1, coelenterazine-binding apoprotein (apoCBP) (Renilla muelleri, UniProt C9V488)
T1 construct: gene CBP1; recombinant apoprotein, single chain, 21 kDa
T1 sequence (C9V488 1-186): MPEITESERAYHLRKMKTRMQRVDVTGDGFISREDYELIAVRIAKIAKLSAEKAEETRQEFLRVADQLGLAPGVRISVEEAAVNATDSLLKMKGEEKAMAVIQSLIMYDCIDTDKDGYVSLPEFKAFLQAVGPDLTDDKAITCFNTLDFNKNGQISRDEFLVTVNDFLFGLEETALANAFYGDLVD
Assay: absorption spectrum of the CBP complex
Details: Ca2+-free; noncovalent

Oc1ccc(Cc2nc3c(Cc4ccccc4)nc(-c4ccc(O)cc4)cn3c2O)cc1 [coelenterazine]
absorption spectrum of the CBP complex: FMZ-apoCBP and CBP spectra obtained under the same conditions are practically identical
